Test results taken from patent publication US4845244A, “Production of hydroxyphenylpropionic acid ester having a novel crystalline structure” (Sumitomo Chemical Company, Limited, priority 1985, dated 1989).

What was measured:
[1] = Solubility in water-insoluble recrystallization solvents (statement); assay type: physicochemical; settings: water-insoluble solvent other than alicyclic or aliphatic hydrocarbons; in words
[2] = Solubility in cyclohexane (Table 2); assay type: physicochemical; settings: for Solubility: cyclohexane

SMILES	solubility of the αβ-crystals in water-insoluble solvent [1]	Solubility ([2]; 20 °C)	Solubility ([2]; 30 °C)	Solubility ([2]; 40 °C)	Solubility ([2]; 50 °C)	Solubility ([2]; 55 °C)	Solubility ([2]; 60 °C)	solubility compared with αβ-crystals ([2]; in words, refers to Table 2)
Cc1cc(CCC(=O)OCC(C)(C)C2OCC3(CO2)COC(C(C)(C)COC(=O)CCc2cc(C)c(O)c(C(C)(C)C)c2)OC3)cc(C(C)(C)C)c1O (stereo not drawn) [α.eta.-Crystal, 3,9-bis{2-[3-(3-tert-butyl-4-hydroxy-5-methylphenyl)propionyloxy]-1,1-dimethylethyl}-2,4,8,10-tetraoxaspiro[5.5]undecane]	so high that the δ-crystals containing substantially no αβ-crystals can be obtained even at room temperature	0.2 g/100 g cyclohexane	0.5 g/100 g cyclohexane	1.4 g/100 g cyclohexane	4.1 g/100 g cyclohexane	8.5 g/100 g cyclohexane	> 60 g/100 g cyclohexane	
Cc1cc(CCC(=O)OCC(C)(C)C2OCC3(CO2)COC(C(C)(C)COC(=O)CCc2cc(C)c(O)c(C(C)(C)C)c2)OC3)cc(C(C)(C)C)c1O (centres unmarked) [δ-Crystal, 3,9-bis{2-[3-(3-tert-butyl-4-hydroxy-5-methylphenyl)propionyloxy]-1,1-dimethylethyl}-2,4,8,10-tetraoxaspiro[5.5]undecane]		0.06 g/100 g cyclohexane	0.1 g/100 g cyclohexane	0.2 g/100 g cyclohexane	0.5 g/100 g cyclohexane	1.1 g/100 g cyclohexane	2.1 g/100 g cyclohexane	lower solubility than that of the αβ-crystals
